Assay results as given in PMC8286840, “Identifying SARS-CoV-2 antiviral compounds by screening for small molecule inhibitors of Nsp3 papain-like protease” (Biochemical Journal, 2021).
Where a name gives a salt, the structure may show the parent alone. Read-outs that look alike come from different tables or passages of the source.

Key:
[1] = biological target: T1, SARS-CoV-2 PLpro (nsp3 1564–1878) (Severe acute respiratory syndrome coronavirus 2, UniProt P0DTD1); test: biochemical; set-up: FRET-quenched peptide (Pro3) cleavage by PLpro, 10 min pre-incubation, slope over 20 min, normalised to no-compound control; settings: low concentration screen, read-out: % of control remaining
[2] = biological target: T1, SARS-CoV-2 PLpro (nsp3 1564–1878); test: biochemical; set-up: FRET-quenched peptide (Pro3) cleavage by PLpro, 10 min pre-incubation, slope over 20 min, normalised to no-compound control; settings: high concentration screen, read-out: % of control remaining

N#CC(C#N)=Cc1ccc(O)c(O)c1 [Tyrphostin 23]
remaining activity at 1.25 µM ([1]; Well no.=1341): 94.2% | remaining activity at 3.75 µM ([2]; Well no.=1341): 93.9%

N#CC(C#N)=Cc1cc(O)c(O)c(O)c1 [Tyrphostin 25]
remaining activity at 1.25 µM ([1]; Well no.=1485): 90.9% | remaining activity at 3.75 µM ([2]; Well no.=1485): 86.6%

N#C/C(=C\c1ccc(O)c(O)c1)C(N)=S [Tyrphostin 47]
remaining activity at 1.25 µM ([1]; Well no.=1276): 97.8% | remaining activity at 3.75 µM ([2]; Well no.=1276): 99.6%

N#CC(C#N)=C(N)/C(C#N)=C/c1cc(O)c(O)c(O)c1 [Tyrphostin 51]
remaining activity at 1.25 µM ([1]; Well no.=1324): 96.8% | remaining activity at 3.75 µM ([2]; Well no.=1324): 95.8%

CC(C)(C)c1cc(C=C(C#N)C#N)cc(C(C)(C)C)c1O [Tyrphostin A9]
remaining activity at 1.25 µM ([1]; Well no.=1426): 99.8% | remaining activity at 3.75 µM ([2]; Well no.=1426): 101%

COc1cc(C=C(C#N)C#N)cc(O)c1O [Tyrphostin AG 34]
remaining activity at 1.25 µM ([1]; Well no.=1387): 102% | remaining activity at 3.75 µM ([2]; Well no.=1387): 101%

N#CC(C#N)=C(N)/C(C#N)=C/c1ccc(O)cc1 [Tyrphostin AG 112]
remaining activity at 1.25 µM ([1]; Well no.=1245): 95.9% | remaining activity at 3.75 µM ([2]; Well no.=1245): 95.9%

N#CC(C#N)=Cc1ccc([N+](=O)[O-])c(O)c1 [Tyrphostin AG 126]
remaining activity at 1.25 µM ([1]; Well no.=1518): 100% | remaining activity at 3.75 µM ([2]; Well no.=1518): 95.4%

N#C/C(=C\c1ccc(O)c(O)c1)C(=O)NCc1ccccc1 [Tyrphostin AG 490]
remaining activity at 1.25 µM ([1]; Well no.=1381): 101% | remaining activity at 3.75 µM ([2]; Well no.=1381): 102%

C[C@@H](NC(=O)/C(C#N)=C/c1ccc(O)c(O)c1)c1ccccc1 [Tyrphostin AG 527]
remaining activity at 1.25 µM ([1]; Well no.=1431): 97.8% | remaining activity at 3.75 µM ([2]; Well no.=1431): 100%

N#C/C(=C\c1ccc(O)c(O)c1)C(=O)N1CCc2ccccc21 [Tyrphostin AG 528]
remaining activity at 1.25 µM ([1]; Well no.=1193): 92.5% | remaining activity at 3.75 µM ([2]; Well no.=1193): 93.3%

N#C/C(=C\c1ccc(O)c(O)c1)C(=O)NCCCNC(=O)/C(C#N)=C/c1ccc(O)c(O)c1 [Tyrphostin AG 537]
remaining activity at 1.25 µM ([1]; Well no.=1289): 103% | remaining activity at 3.75 µM ([2]; Well no.=1289): 99.7%

N#C/C(=C\c1ccc(O)c(O)c1)C(=O)c1ccc(O)c(O)c1 [Tyrphostin AG 538]
remaining activity at 1.25 µM ([1]; Well no.=1468): 93.5% | remaining activity at 3.75 µM ([2]; Well no.=1468): 92.4%

N#C/C(=C\c1ccc(O)c(O)c1)C(=O)NCCCc1ccccc1 [Tyrphostin AG 555]
remaining activity at 1.25 µM ([1]; Well no.=1337): 101% | remaining activity at 3.75 µM ([2]; Well no.=1337): 98.7%

N#C/C(=C\c1c[nH]c2ccccc12)C(=O)c1ccc(O)c(O)c1 [Tyrphostin AG 808]
remaining activity at 1.25 µM ([1]; Well no.=1433): 98.9% | remaining activity at 3.75 µM ([2]; Well no.=1433): 97.2%

CC(C)(C)c1cc(/C=C(\C#N)C(N)=S)cc(C(C)(C)C)c1O [Tyrphostin AG 879]
remaining activity at 1.25 µM ([1]; Well no.=1427): 95.8% | remaining activity at 3.75 µM ([2]; Well no.=1427): 85.7%

COc1cc2ncc(-c3ccccc3)nc2cc1OC [Tyrphostin AG 1296]
remaining activity at 1.25 µM ([1]; Well no.=1477): 97.5% | remaining activity at 3.75 µM ([2]; Well no.=1477): 97.9%

COc1cc2ncnc(Nc3cccc(Cl)c3)c2cc1OC [Tyrphostin AG 1478]
remaining activity at 1.25 µM ([1]; Well no.=1191): 100% | remaining activity at 3.75 µM ([2]; Well no.=1191): 100%

CC(C)c1cc(/C=C(\C#N)C(=O)NCCCc2ccccc2)cc(C(C)C)c1O [Tyrphostin SU 1498]
remaining activity at 1.25 µM ([1]; Well no.=5970): 90% | remaining activity at 3.75 µM ([2]; Well no.=5970): 89.5%

N#CC(=C(/N)Sc1ccccc1N)/C(C#N)=C(\N)Sc1ccccc1N [U0126 - 1,4-Diamino-2,3-dicyano-1,4-bis[2-aminophenylthio]butadiene]
remaining activity at 1.25 µM ([1]; Well no.=2346): 96.1% | remaining activity at 3.75 µM ([2]; Well no.=2346): 96.8%

N#CC(=C(/N)Sc1ccccc1N)/C(C#N)=C(\N)Sc1ccccc1N [U0126]
remaining activity at 1.25 µM ([1]; Well no.=1240): 99.2% | remaining activity at 3.75 µM ([2]; Well no.=1240): 101%

C[C@]12C=CC(=O)C=C1CC[C@@H]1C2=CC[C@]2(C)[C@@H](C(=O)CN3CCN(c4cc(N5CCCC5)nc(N5CCCC5)n4)CC3)CC[C@@H]12 [U74389G maleate]
remaining activity at 1.25 µM ([1]; Well no.=3905): 103% | remaining activity at 3.75 µM ([2]; Well no.=3905): 98.2%

NS(=O)(=O)c1ccc(NC(=O)Nc2ccc(F)cc2)cc1 [U-104]
remaining activity at 1.25 µM ([1]; Well no.=8246): 98% | remaining activity at 1.25 µM ([1]; Well no.=8566): 103% | remaining activity at 3.75 µM ([2]; Well no.=8246): 93.1% | remaining activity at 3.75 µM ([2]; Well no.=8566): 103%

COc1ccc2c(c1)CC[C@@H]1[C@@H]2CC[C@]2(C)[C@@H](NCCCCCCN3C(=O)C=CC3=O)CC[C@@H]12 [U-73122 hydrate]
remaining activity at 1.25 µM ([1]; Well no.=5562): 93% | remaining activity at 3.75 µM ([2]; Well no.=5562): 93.8%

COc1ccc2c(c1)CC[C@@H]1[C@@H]2CC[C@]2(C)[C@@H](NCCCCCCN3C(=O)C=CC3=O)CC[C@@H]12 [U-73122]
remaining activity at 1.25 µM ([1]; Well no.=1332): 103% | remaining activity at 3.75 µM ([2]; Well no.=1332): 105%

COc1ccc2c(c1)CC[C@@H]1[C@@H]2CC[C@]2(C)[C@@H](NCCCCCCN3C(=O)CCC3=O)CC[C@@H]12 [U-73343]
remaining activity at 1.25 µM ([1]; Well no.=1380): 101% | remaining activity at 3.75 µM ([2]; Well no.=1380): 102%

C[C@]12C=CC(=O)C=C1CC[C@@H]1C2=CC[C@]2(C)[C@@H](C(=O)CN3CCN(c4cc(N5CCCC5)nc(N5CCCC5)n4)CC3)CC[C@@H]12 [U-74389G maleate]
remaining activity at 1.25 µM ([1]; Well no.=1236): 104% | remaining activity at 3.75 µM ([2]; Well no.=1236): 106%

Cc1c(C)c2c(c(C)c1O)CCC(C)(CN1CCN(c3cc(N4CCCC4)nc(N4CCCC4)n3)CC1)O2 (centres unmarked) [U-83836 dihydrochloride]
remaining activity at 1.25 µM ([1]; Well no.=1284): 105% | remaining activity at 3.75 µM ([2]; Well no.=1284): 106%

CCCN(CCC)C1Cc2cc(OC)c(OC)cc2C1 [U-99194A maleate]
remaining activity at 1.25 µM ([1]; Well no.=1192): 100% | remaining activity at 3.75 µM ([2]; Well no.=1192): 99.6%

CC(C)Oc1cccnc1N(C)C1CCN(Cc2ccccc2)CC1 [U-101958 maleate]
remaining activity at 1.25 µM ([1]; Well no.=1526): 93.8% | remaining activity at 3.75 µM ([2]; Well no.=1526): 92.1%

O=S(=O)(NCCN1CCNCC1)c1ccc(NC2CCCCC2)c(NCc2ccccc2)c1 [UAMC-3203 hydrochloride]
remaining activity at 1.25 µM ([1]; Well no.=6780): 105% | remaining activity at 3.75 µM ([2]; Well no.=6780): 102%

CN[C@@H]1C[C@H]2O[C@@](C)([C@@H]1OC)n1c3ccccc3c3c4c(c5c6ccccc6n2c5c31)C(=O)N[C@H]4O [UCN-01]
remaining activity at 1.25 µM ([1]; Well no.=2587): 95.7% | remaining activity at 3.75 µM ([2]; Well no.=2587): 97.5%

Brc1c(NC2=NCCN2)ccc2nccnc12 [UK 14,304 (tartrate)]
remaining activity at 1.25 µM ([1]; Well no.=6572): 98.5% | remaining activity at 3.75 µM ([2]; Well no.=6572): 102%

Brc1c(NC2=NCCN2)ccc2nccnc12 [UK 14,304]
remaining activity at 1.25 µM ([1]; Well no.=1238): 98.9% | remaining activity at 3.75 µM ([2]; Well no.=1238): 97.9%

NC(=O)c1noc([C@H](CCCC2CCCCC2)CC(=O)NO)n1 [UK 383367]
remaining activity at 1.25 µM ([1]; Well no.=8384): 90.4% | remaining activity at 3.75 µM ([2]; Well no.=8384): 90.6%

NC(=O)c1noc([C@H](CCCC2CCCCC2)CC(=O)NO)n1 [UK-383,367]
remaining activity at 1.25 µM ([1]; Well no.=5839): 102% | remaining activity at 3.75 µM ([2]; Well no.=5839): 103%
